Reference: patent publication US7067518B2, “Pyridinyl-methyl-ethyl cyclohexanecarboxamides as serotonergic agents” (Wyeth, priority 2002, dated 2006)
Where a name gives a salt, the structure may show the parent alone.

Tests used:
human 5-HT1A receptor [1] = target: T1, human 5-HT1A receptor (Homo sapiens, UniProt P08908); assay: 5-HT1A affinity: displacement of [3H] 8-OHDPAT; format: binding; conditions: CHO cells stably transfected with the human 5-HT1A receptor
T1 construct: expressed in transfected cells; host or cells: CHO cells (stably transfected)
T1 sequence (P08908 1-422): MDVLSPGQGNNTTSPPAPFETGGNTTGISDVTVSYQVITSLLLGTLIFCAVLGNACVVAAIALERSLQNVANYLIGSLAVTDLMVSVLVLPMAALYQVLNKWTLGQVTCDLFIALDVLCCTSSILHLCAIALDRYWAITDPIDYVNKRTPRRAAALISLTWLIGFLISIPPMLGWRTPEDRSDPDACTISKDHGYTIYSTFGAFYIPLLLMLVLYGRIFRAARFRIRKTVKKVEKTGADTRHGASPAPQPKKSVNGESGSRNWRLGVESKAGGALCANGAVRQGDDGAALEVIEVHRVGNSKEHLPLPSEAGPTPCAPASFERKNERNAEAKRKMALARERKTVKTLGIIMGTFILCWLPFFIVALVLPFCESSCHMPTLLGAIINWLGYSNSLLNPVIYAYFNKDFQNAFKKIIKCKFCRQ
Text: Affinity for the serotonin 5-HT1A receptor was established by assaying the test compound's ability to displace [^3H] 8-OHDPAT from its binding site on the receptor complex in CHO cells stably transfected with the human 5-HT1A receptor following the procedure described by J. Dunlop, Y. Zhang, D. Smith and L. Schechter (Eur. J. Pharmacol., submitted; variation of a procedure described by J. Zgombick et al., Naunyn-Schmiedeberg's Arch. Pharmacol., 354, 226–236 (1996)).

human 5-HT1A receptor [2] = target: T1, human 5-HT1A receptor; assay: Antagonist activity: forskolin-stimulated cAMP turnover; format: cell-based; conditions: CHO cells stably transfected with the human 5-HT1A receptor, compounds with no agonist activity (Emax=0%)
Text: Compounds shown to have no agonist activity (Emax=0%) are further analyzed to determine antagonist activity, as measured by the test compound's ability to inhibit forskolin-stimulated cAMP turnover in CHO cells stably transfected with the human 5-HT1A receptor using a procedure described by J. Dunlop, Y. Zhang, D. Smith and L. Schechter [Eur. J. Pharmacol., submitted; variation of a procedure described by J. Zgombick et al., Naunyn-Schmiedeberg's Arch. Pharmacol., 354, 226–236 (1996)].

human 5-HT1A receptor [3] = target: T1, human 5-HT1A receptor; assay: Agonist activity: reversal of forskolin stimulation of cAMP; format: cell-based; conditions: reversal of forskolin-stimulated cAMP; CHO cells stably transfected with the human 5-HT1A receptor; RIA
Description: EC50 values are determined for the active test compounds. Stably transfected CHO cells were grown in DMEM containing 10% heat inactivated FBS and non-essential amino acids. The cells are plated at a density of […] per well in a 24 well plate and incubated for 2 days in a CO2 incubator. On the second day, the media is replaced with 0.5 mL treatment buffer (DMEM+25 mM HEPES, 5 mM theophylline, 10 mM pargyline) and incubated for 10 minutes at 37° C. Wells are treated with forskolin ([…]) followed immediately by the test compound ([…] for initial screen) and incubated for an additional 10 minutes at 37° C. The reaction is terminated by removal of the media and addition of 0.5 mL ice cold assay buffer (supplied in the RIA kit). Plates are stored at −20° C. prior to assessment of cAMP formation by RIA.

melting point | IC50 (human 5-HT1A receptor [1]) | IC50 (human 5-HT1A receptor [2]) | EC50 (human 5-HT1A receptor [3]) | Structure (SMILES)
136 to 141 °C | – | – | – | COc1ccccc1N1CCN(C[C@@H](Cc2ccccn2)NC(=O)C2CCCCC2)CC1 (as salt: fumarate) [Example 14, (R)-Cyclohexanecarboxylic acid {2-[4-(2-methoxy-phenyl)-piperazin-1-yl]-1-pyridin-2-ylmethyl-ethyl}-amide]
– | 3 nM | 132 nM | – | COc1ccccc1N1CCN(C[C@@H](Cc2ccccn2)N(C)C(=O)C2(C)CCCCC2)CC1 [Example 18, 1-Methyl-cyclohexanecarboxylic acid {(1R)-2-[4-(2-methoxy-phenyl)-piperazin-1-yl]-1-pyridin-2-ylmethyl-ethyl}-methyl-amide]
145 to 147 °C | – | – | – | COc1ccccc1N1CCN(C[C@@H](Cc2ccncc2)NC(=O)C2CCCCC2)CC1 (as salt: maleate) [Example 9, (R)-Cyclohexanecarboxylic acid {2-[4-(2-methoxy-phenyl)-piperazin-1-yl]-1-pyridin-4-ylmethyl-ethyl}-amide]
– | 0.88 nM | 13.2 nM | – | COc1ccccc1N1CCN(C[C@@H](Cc2cccnc2)NC(=O)C2(C)CCCCC2)CC1 [Example 5, (R)-1-Methyl-cyclohexanecarboxylic acid {2-[4-(2-methoxy-phenyl)-piperazin-1-yl]-1-pyridin-3-ylmethyl-ethyl}-amide]
188 to 190 °C | – | – | – | CC1(C(=O)N[C@H](Cc2ccncc2)CN2CCN(c3cccc4c3OCCO4)CC2)CCCCC1 (as salt: hydrochloride) [Example 23, 1-Methyl-cyclohexanecarboxylic acid {(1R)-2-[4-(2,3-dihydro-benzo[1,4]dioxin-5-yl)-piperazin-1-yl]-1-pyridin-4-ylmethyl-ethyl}-amide]
– | 2.58 nM | – | 10.2 nM | CC1(C(=O)N[C@H](Cc2cccnc2)CN2CCN(c3cccc4c3OCCO4)CC2)CCCCC1 [Example 22, 1-Methyl-cyclohexanecarboxylic acid {(1R)-2-[4-(2,3-dihydro-benzo[1,4]dioxin-5-yl)-piperazin-1-yl]-1-pyridin-3-ylmethyl-ethyl}-amide]
– | 1.13 nM | – | 108 nM | CC1(C(=O)N[C@H](Cc2ccncc2)CN2CCN(c3cccc4c3OCCO4)CC2)CCCCC1 [Example 23, 1-Methyl-cyclohexanecarboxylic acid {(1R)-2-[4-(2,3-dihydro-benzo[1,4]dioxin-5-yl)-piperazin-1-yl]-1-pyridin-4-ylmethyl-ethyl}-amide]
– | 0.72 nM | 11.3 nM | – | COc1ccccc1N1CCN(C[C@@H](Cc2ccncc2)NC(=O)C2(C)CCCCC2)CC1 [Example 10, (R)-1-Methyl-cyclohexanecarboxylic acid {2-[4-(2-methoxy-phenyl)-piperazin-1-yl]-1-pyridin-4-ylmethyl-ethyl}-amide]
145 to 146 °C | – | – | – | COc1ccccc1N1CCN(C[C@@H](Cc2ccccn2)N(C)C(=O)C2(C)CCCCC2)CC1 (as salt: fumarate) [Example 18, 1-Methyl-cyclohexanecarboxylic acid {(1R)-2-[4-(2-methoxy-phenyl)-piperazin-1-yl]-1-pyridin-2-ylmethyl-ethyl}-methyl-amide]
– | 2.48 nM | 77 nM | – | CN(C(=O)C1CCCCC1)[C@H](Cc1cccnc1)CN1CCN(c2cccc3c2OCCO3)CC1 [Example 24, Cyclohexanecarboxylic acid {(1R)-2-[4-(2,3-dihydro-benzo[1,4]dioxin-5-yl)-piperazin-1-yl]-1-pyridin-3-ylmethyl-ethyl}-methyl-amide]
167 to 170 °C | – | – | – | CN(C(=O)C1CCCCC1)[C@H](Cc1ccncc1)CN1CCN(c2cccc3c2OCCO3)CC1 (as salt: hydrochloride) [Example 25, Cyclohexanecarboxylic acid {(1R)-2-[4-(2,3-dihydro-benzo[1,4]dioxin-5-yl)-piperazin-1-yl]-1-pyridin-4-ylmethyl-ethyl}-methyl-amide]
188 to 190 °C | – | – | – | CC1(C(=O)N[C@H](Cc2cccnc2)CN2CCN(c3cccc4c3OCCO4)CC2)CCCCC1 (as salt: hydrochloride) [Example 22, 1-Methyl-cyclohexanecarboxylic acid {(1R)-2-[4-(2,3-dihydro-benzo[1,4]dioxin-5-yl)-piperazin-1-yl]-1-pyridin-3-ylmethyl-ethyl}-amide]
167 to 170 °C | – | – | – | CN(C(=O)C1CCCCC1)[C@H](Cc1cccnc1)CN1CCN(c2cccc3c2OCCO3)CC1 (as salt: hydrochloride) [Example 24, Cyclohexanecarboxylic acid {(1R)-2-[4-(2,3-dihydro-benzo[1,4]dioxin-5-yl)-piperazin-1-yl]-1-pyridin-3-ylmethyl-ethyl}-methyl-amide]
150 to 152 °C | – | – | – | COc1ccccc1N1CCN(C[C@@H](Cc2cccnc2)NC(=O)C2(C)CCCCC2)CC1 (as salt: fumarate) [Example 5, (R)-1-Methyl-cyclohexanecarboxylic acid {2-[4-(2-methoxy-phenyl)-piperazin-1-yl]-1-pyridin-3-ylmethyl-ethyl}-amide]
135 to 139 °C | – | – | – | COc1ccccc1N1CCN(C[C@@H](Cc2ccccn2)NC(=O)C2(C)CCCCC2)CC1 (as salt: fumarate) [Example 15, (R)-1-Methyl-cyclohexanecarboxylic acid {2-[4-(2-methoxy-phenyl)-piperazin-1-yl]-1-pyridin-2-ylmethyl-ethyl}-amide]
– | 0.74 nM | 4.5 nM | – | COc1ccccc1N1CCN(C[C@@H](Cc2ccccn2)NC(=O)C2(C)CCCCC2)CC1 [Example 15, (R)-1-Methyl-cyclohexanecarboxylic acid {2-[4-(2-methoxy-phenyl)-piperazin-1-yl]-1-pyridin-2-ylmethyl-ethyl}-amide]
– | 0.56 nM | – | 141 nM | COc1ccccc1N1CCN(C[C@@H](Cc2ccncc2)NC(=O)C2CCCCC2)CC1 [Example 9, (R)-Cyclohexanecarboxylic acid {2-[4-(2-methoxy-phenyl)-piperazin-1-yl]-1-pyridin-4-ylmethyl-ethyl}-amide]
– | 0.48 nM | – | 20.5 nM | COc1ccccc1N1CCN(C[C@@H](Cc2cccnc2)NC(=O)C2CCCCC2)CC1 [Example 4, (R)-Cyclohexanecarboxylic acid {2-[4-(2-methoxy-phenyl)-piperazin-1-yl]-1-pyridin-3-ylmethyl-ethyl}-amide]
145 °C | – | – | – | COc1ccccc1N1CCN(C[C@@H](Cc2ccncc2)NC(=O)C2(C)CCCCC2)CC1 (as salt: fumarate) [Example 10, (R)-1-Methyl-cyclohexanecarboxylic acid {2-[4-(2-methoxy-phenyl)-piperazin-1-yl]-1-pyridin-4-ylmethyl-ethyl}-amide]
112 to 115 °C | – | – | – | COc1ccccc1N1CCN(C[C@@H](Cc2cccnc2)NC(=O)C2CCCCC2)CC1 (as salt: maleate) [Example 4, (R)-Cyclohexanecarboxylic acid {2-[4-(2-methoxy-phenyl)-piperazin-1-yl]-1-pyridin-3-ylmethyl-ethyl}-amide]
– | 3.81 nM | 115 nM | – | CN(C(=O)C1CCCCC1)[C@H](Cc1ccncc1)CN1CCN(c2cccc3c2OCCO3)CC1 [Example 25, Cyclohexanecarboxylic acid {(1R)-2-[4-(2,3-dihydro-benzo[1,4]dioxin-5-yl)-piperazin-1-yl]-1-pyridin-4-ylmethyl-ethyl}-methyl-amide]
– | 1.26 nM | – | 53 nM | COc1ccccc1N1CCN(C[C@@H](Cc2ccccn2)NC(=O)C2CCCCC2)CC1 [Example 14, (R)-Cyclohexanecarboxylic acid {2-[4-(2-methoxy-phenyl)-piperazin-1-yl]-1-pyridin-2-ylmethyl-ethyl}-amide]
